Our source for the melting point values is patent US8071587B2, “(Dihydro)imidazoiso[5,1-A]quinolines” (N. V. Organon, priority 2009, dated 2011).

The structures appear in SMILES notation.

Regarding `COc1cc2c(cc1C=C(F)F)-c1c(-c3cccs3)nc(C(=O)N(C)C(C)(C)C)n1CC2` [Example 39, 9-(2,2-Difluoro-vinyl)-8-methoxy-1-thiophen-2-yl-5,6-dihydro-imidazo[5,1-a]isoquinoline-3-carboxylic acid tert-butyl-methyl-amide], the melting point – broadly, the temperature, or range, at which the solid turns liquid – lay within 154 to 155 °C. Then `COc1cc2c(cc1OC(C)C)-c1c(-c3cncs3)nc(C(=O)N(C)C(C)(C)C)n1CC2` [Example 47e, 9-Isopropoxy-8-methoxy-1-thiazol-5-yl-5,6-dihydro-imidazo[5,1-a]isoquinoline-3-carboxylic acid tert-butyl-methyl-amide], with 112 to 114 °C; and `COc1cc2c(cc1-c1ccccn1)-c1c(-c3cccs3)nc(C(=O)N(C)C(C)(C)C)n1CC2` [Example 2b, 8-Methoxy-9-pyridin-2-yl-1-thiophen-2-yl-5,6-dihydro-imidazo[5,1-a]isoquinoline-3-carboxylic acid tert-butyl-methyl-amide], with 176 to 177 °C. The value for `CC(C)Cc1ccc2c(c1)-c1c(-c3cccs3)nc(C(=O)N(C)C(C)(C)C)n1CC2` [Example 20b, 9-Isobutyl-1-thiophen-2-yl-5,6-dihydro-imidazo[5,1-a]isoquinoline-3-carboxylic acid tert-butyl-methyl-amide] was 126 °C; that for `COc1cc2c(cc1-c1cccc(N3CCOCC3)c1)-c1c(-c3cccs3)nc(C(=O)N(C)C(C)(C)C)n1CC2` [Example 2h, 8-Methoxy-9-(3-morpholin-4-yl-phenyl)-1-thiophen-2-yl-5,6-dihydro-imidazo[5,1-a]isoquinoline-3-carboxylic acid tert-butyl-methyl-amide] was 85 to 90 °C. Then `COc1cc2c(cc1-c1cccc(N(C)C)c1)-c1c(-c3cccs3)nc(C(=O)N(C)C(C)(C)C)n1CC2` [Example 2l, 9-(3-Dimethylamino-phenyl)-8-methoxy-1-thiophen-2-yl-5,6-dihydro-imidazo[5,1-a]isoquinoline-3-carboxylic acid tert-butyl-methyl-amide], with 149 °C; and `COc1cc2c(cc1-c1cccc(C(=O)N(C)C)c1)-c1c(-c3cccs3)nc(C(=O)N(C)C(C)(C)C)n1CC2` [Example 2n, 9-(3-Dimethylcarbamoyl-phenyl)-8-methoxy-1-thiophen-2-yl-5,6-dihydro-imidazo[5,1-a]iso-quinoline-3-carboxylic acid tert-butyl-methyl-amide], with 151 °C.

Turning to `COc1cc2c(cc1NC(=O)c1csnn1)-c1c(-c3cccs3)nc(C(=O)N(C)C(C)(C)C)n1CC2` [Example 12, 8-Methoxy-9[([1,2,3]thiadiazole-4-carbonyl)-amino]-1-thiophen-2-yl-5,6-dihydro-imidazo[5,1-a]isoquinoline-3-carboxylic acid tert-butyl-methyl-amide], the melting point is 210 to 212 °C. Then `COc1cc2ccn3c(C(=O)N(C)C(C)(C)C)nc(-c4cccs4)c3c2cc1-c1cnn(C)c1` [Example 17b, 8-Methoxy-9-(1-methyl-1H-pyrazol-4-yl)-1-thiophen-2-yl-imidazo[5,1-a]isoquinoline-3-carboxylic acid tert-butyl-methyl-amide], with 239 to 241 °C; and `COc1cc2c(cc1-c1c(C)noc1C)-c1c(-c3cccs3)nc(C(=O)N(C)C(C)(C)C)n1CC2` [Example 2m, 9-(3,5-Dimethyl-isoxazol-4-yl)-8-methoxy-1-thiophen-2-yl-5,6-dihydro-imidazo[5,1-a]isoquinoline-3-carboxylic acid tert-butyl-methyl-amide], with 183 to 184 °C; and `COc1cc2c(c(F)c1CC(C)C)-c1c(-c3cccs3)nc(C(=O)N(C)C(C)(C)C)n1CC2` [Example 48j, 10-Fluoro-9-isobutyl-8-methoxy-1-thiophen-2-yl-5,6-dihydro-imidazo[5,1-a]isoquinoline-3-carboxylic acid tert-butyl-methyl-amide], with 141 to 142 °C. Then `COc1cccc(Oc2cc3c(cc2OC)CCn2c(C(=O)N(C)C(C)(C)C)nc(-c4cccs4)c2-3)c1` [Example 43b, 8-Methoxy-9-(3-methoxy-phenoxy)-1-thiophen-2-yl-5,6-dihydro-imidazo[5,1-a]isoquinoline-3-carboxylic acid tert-butyl-methyl-amide], with 123 to 124 °C; and `COc1cc2ccn3c(C(=O)N(C)C(C)(C)C)nc(-c4cccs4)c3c2cc1C=C(C)C` [Example 16e, 8-Methoxy-9-(2-methyl-propenyl)-1-thiophen-2-yl-imidazo[5,1-a]isoquinoline-3-carboxylic acid tert-butyl-methyl-amide], with 121 to 123 °C; and `COc1cc2c(cc1-c1cccc(N)c1)-c1c(-c3cccs3)nc(C(=O)N(C)C(C)(C)C)n1CC2` [Example 2k, 9-(3-Amino-phenyl)-8-methoxy-1-thiophen-2-yl-5,6-dihydro-imidazo[5,1-a]isoquinoline-3-carboxylic acid tert-butyl-methyl-amide], with 213 °C. The value for `COc1ccccc1-c1cc2c(cc1OC)CCn1c(C(=O)N(C)C(C)(C)C)nc(-c3cccs3)c1-2` [Example 2q, 8-Methoxy-9-(2-methoxy-phenyl)-1-thiophen-2-yl-5,6-dihydro-imidazo[5,1-a]isoquinoline-3-carboxylic acid tert-butyl-methyl-amide] was 188 to 189 °C; that for `COc1cc2c(cc1-c1cccc(S(C)(=O)=O)c1)-c1c(-c3cccs3)nc(C(=O)N(C)C(C)(C)C)n1CC2` [Example 2p, 9-(3-Methanesulfonyl-phenyl)-8-methoxy-1-thiophen-2-yl-5,6-dihydro-imidazo[5,1-a]isoquinoline-3-carboxylic acid tert-butyl-methyl-amide] was 216 °C.
